# Laboratory results published in patent publication US4695573A (Hoechst-Roussel Pharmaceuticals Inc., priority 1985, dated 1987).
# pIC50: −log10 of the molar value. Where a name gives a salt, the structure may show the parent alone. Read-outs that look alike come from different tables or passages of the source.
# Tests used:
# acetylcholinesterase = acetylcholinesterase (Homo sapiens, UniProt P22303); assay: Cholinesterase Inhibition Assay (photometric method of Ellman et al.); format: biochemical
# [1] = tested on: cholinergically deficient memory; assay: Dark Avoidance Assay (block of scopolamine-induced memory impairment); format: in vivo, mice; conditions: Mus musculus, read-out: % of Animals Greater than Scopolamine; for responders at 5 mg/kg: dose 5.0 mg/kg of body weight; for responders at 0.16 mg/kg: dose 0.16 mg/kg of body weight; for responders at 1.25 mg/kg: dose 1.25 mg/kg of body weight; for responders at 2.5 mg/kg: dose 2.5 mg/kg of body weight
# Method: In this assay mice are tested for their ability to remember an unpleasant stimulus for a period of 24 hours. A mouse is placed in a chamber that contains a dark compartment; a strong incandescent light drives it to the dark compartment, where an electric shock is administered through metal plates on the floor. The animal is removed from the testing apparatus and tested again, 24 hours later, for the ability to remember the electric shock.
# If scolopamine, an anticholinergic that is known to cause memory impairment, is administered before an animal's initial exposure to the test chamber, the animal re-enters the dark compartment shortly after being placed in the test chamber 24 hours later.
# [2] = photometric method of Ellman, read-out: Cholinesterase Inhibition IC50
# [3] = mice, dose 0.63 mg/kg of body weight, retest after 24 hours
# Sequence of acetylcholinesterase (P22303 32-614): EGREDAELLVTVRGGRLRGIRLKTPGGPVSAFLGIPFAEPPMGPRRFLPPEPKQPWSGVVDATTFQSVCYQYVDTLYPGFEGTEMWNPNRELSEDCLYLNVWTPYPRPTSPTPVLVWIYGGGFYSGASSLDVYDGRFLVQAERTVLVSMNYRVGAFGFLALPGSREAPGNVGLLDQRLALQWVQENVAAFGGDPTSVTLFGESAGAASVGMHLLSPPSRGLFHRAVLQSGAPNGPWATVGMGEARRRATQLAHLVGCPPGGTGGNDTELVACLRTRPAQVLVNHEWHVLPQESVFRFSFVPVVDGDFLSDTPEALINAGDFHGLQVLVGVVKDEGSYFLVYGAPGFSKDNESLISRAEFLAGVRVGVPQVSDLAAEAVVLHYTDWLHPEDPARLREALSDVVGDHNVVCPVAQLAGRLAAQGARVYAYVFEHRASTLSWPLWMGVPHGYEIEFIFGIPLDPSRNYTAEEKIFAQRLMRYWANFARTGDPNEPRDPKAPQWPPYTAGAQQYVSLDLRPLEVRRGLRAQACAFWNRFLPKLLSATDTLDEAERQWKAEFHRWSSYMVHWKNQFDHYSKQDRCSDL
smiles,measurement,setting,value
"OC1CCCc2nc3ccccc3c(NCCc3ccccc3)c21 (stereo not shown) [9-Phenethylamino-1,2,3,4-tetrahydroacridin-1-ol]",pIC50,acetylcholinesterase; [2],3.62
"COc1ccccc1CNc1c2c(nc3ccccc13)CCCC2O (stereo not shown) [9-(2-Methoxybenzylamino)-1,2,3,4-tetrahydroacridin-1-ol]",pIC50,acetylcholinesterase,3.82
same,responders at 0.21 mg/kg,"[1]; mice, dose 0.21 mg/kg of body weight, retest after 24 hours",33%
"O=C1CCCc2nc3ccccc3c(NCCCC(c3ccccc3)c3ccccc3)c21 [3,4-Dihydro-9-(4,4-diphenylbutylamino)acridin-1(2H)-one]",pIC50,acetylcholinesterase,4.89
same,responders at 0.63 mg/kg,[1]; [3],50%
"Nc1c2c(nc3ccccc13)CCCC2O (stereo not shown) [9-Amino-1,2,3,4-tetrahydroacridin-1-ol]",responders at 0.63 mg/kg,[1]; [3],33%
"Nc1c2c(nc3cc(C(F)(F)F)ccc13)CCCC2O (stereo not shown) [9-Amino-1,2,3,4-tetrahydro-6-trifluoromethylacridin-1-ol]",responders at 0.63 mg/kg,[1]; [3],71%
"O=C1CCCc2nc3ccccc3c(NCCCC(c3cccc(F)c3)c3cccc(F)c3)c21 [3,4-Dihydro-9-[4,4-bis(3-fluorophenyl)butylamino]acridin-1(2H)-one]",pIC50,acetylcholinesterase,5.72
same,responders at 5 mg/kg,"[1]; mice, retest after 24 hours",40%
"O=C1CCCc2nc3cc(F)ccc3c(NCc3ccccc3)c21 [9-Benzylamino-3,4-dihydro-6-fluoroacridin-1(2H)-one, maleate]",responders at 5 mg/kg,"[1]; mice, retest after 24 hours",40%
"OC1CCCc2nc3ccccc3c(NCc3ccccc3C(F)(F)F)c21 (stereo not shown) [1,2,3,4-Tetrahydro-9-(2-trifluoromethylbenzylamino)acridin-1-ol]",pIC50,acetylcholinesterase,3.04
same,responders at 0.16 mg/kg,"[1]; mice, retest after 24 hours",38%
"OC1CCCc2nc3ccccc3c(NCc3ccccc3)c21 (stereo not shown) [9-Benzylamino-1,2,3,4-tetrahydroacridin-1-ol]",responders at 1.25 mg/kg,"[1]; mice, retest after 24 hours",27%
"OC1CCCc2nc3ccccc3c(NCc3ccc(C(F)(F)F)cc3)c21 (stereo not shown) [1,2,3,4-Tetrahydro-9-(4-trifluoromethylbenzylamino)acridin-1-ol]",pIC50,acetylcholinesterase,3.26
same,responders at 0.16 mg/kg,"[1]; mice, retest after 24 hours",22%
"OC1CCCc2nc3ccccc3c(NCc3ccccc3Cl)c21 (stereo not shown) [9-(2-Chlorobenzylamino)-1,2,3,4-tetrahydroacridin-1-ol]",pIC50,acetylcholinesterase,3.89
same,responders at 0.31 mg/kg,"[1]; mice, dose 0.31 mg/kg of body weight, retest after 24 hours",27%
"OC1CCCc2nc3ccccc3c(NCc3ccccc3F)c21 (stereo not shown) [9-(2-Fluorobenzylamino)-1,2,3,4-tetrahydroacridin-1-ol maleate]",pIC50,acetylcholinesterase,3.68
same,responders at 2.5 mg/kg,"[1]; mice, retest after 24 hours",27%
"Nc1c2c(nc3ccccc13)CCCC2 [Tacrine, 9-Amino-1,2,3,4-tetrahydroacridine, reference compound]",responders at 0.63 mg/kg,[1]; 24 h,13%
"CC[C@@H]1C(=O)OC[C@@H]1Cc1cncn1C [Pilocarpine, reference compound]",responders at 5 mg/kg,"[1]; mice, retest after 24 hours",13%
"Nc1c2c(nc3ccccc13)CCC=C2 [9-Amino-3,4-dihydroacridine]",pIC50,acetylcholinesterase,5.19
same,responders at 2.5 mg/kg,"[1]; mice, retest after 24 hours",20%
"Nc1c2c(nc3ccccc13)CCCC2=O [9-Amino-3,4-dihydroacridin-1(2H)--one, 9-Amino-3,4-dihydroacridin-1(2H)-one]",pIC50,acetylcholinesterase; [2],3.60
"OC1CCCc2nc3ccccc3c(NCc3ccc(F)cc3)c21 (stereo not shown) [9-(4-fluorobenzylamino)-1,2,3,4-tetrahydroacridin-1-ol]",pIC50,acetylcholinesterase,3.96
same,responders at 1.25 mg/kg,"[1]; mice, retest after 24 hours",33%
"OC1CCCc2nc3ccccc3c(NCc3c(F)c(F)c(F)c(F)c3F)c21 (stereo not shown) [9-[(2,3,4,5,6-Pentafluorobenzyl)amino]-1,2,3,4-tetrahydroacridin-1-ol, fumarate]",pIC50,acetylcholinesterase,3.46
same,responders at 5 mg/kg,"[1]; mice, retest after 24 hours",20%
